Laboratory results as given in patent publication US6713506B2, “Tea polyphenol esters and analogs thereof for cancer prevention and treatment” (University of South Florida, priority 2000, dated 2004).

Legend:
[1] = test system: SV-40-transformed WI-38 cells (VA-13); experiment: Cell cycle analysis by flow cytometry, VA-13 cells; type: cell-based, human; details: VA-13, 10 μM
Procedure: FIG. 6. Cell cycle analysis. Asynchronous Jurkat, LNCaP, WI-38, and VA-13 cells are treated with 10 μM EGCG and harvested at the time points indicated. Cells are prepared and analyzed by flow cytometry as described in the The Materials and Methods section of Example 1. Growth arrest is determined by the increase in the percentage of G1 population.
Cell cycle analysis—Cell cycle analysis based on DNA content is performed as follows. Cells are harvested, counted and washed twice with PBS. Cells (5×10^6 ) are then suspended in 0.5 ml PBS, pipetted and fixed in 5 ml of 70% ethanol for at least 2 h at −20° C. Cells are centrifuged, resuspended in 1 ml of propidium iodide staining solution (50 μg propidium iodide, 100 units RNase A and 1 mg glucose per ml PBS) and incubated at room temperature for 30 min. The cells are then analyzed with FACScan (Becton Dickinson Immunocytometry, CA.), ModFit LT and WinMDI V.2.8 cell cycle analysis software (Verity Software, Topsham, Me.). The cell cycle distribution is shown as the percentage of cells containing G1, S, G2, and M DNA judged by propidium iodide staining.

[2] = biological target: chymotrypsin-like activity of purified 20S proteasome; type: biochemical; details: read-out: IC50 towards the chymotrypsin-like activity of purified 20S proteasome
Sequence of chymotrypsin-like activity of purified 20S proteasome (Q9P992 whole entry): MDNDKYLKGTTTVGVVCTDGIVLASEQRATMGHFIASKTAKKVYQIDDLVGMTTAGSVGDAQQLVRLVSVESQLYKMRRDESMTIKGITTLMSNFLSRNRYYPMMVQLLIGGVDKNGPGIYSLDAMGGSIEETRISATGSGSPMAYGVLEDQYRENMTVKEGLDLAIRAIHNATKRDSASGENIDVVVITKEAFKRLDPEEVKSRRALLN
Procedure: FIG. 8. […] A). […] Initially, 0.5 μg of purified 20S proteasome is incubated with 20 μM of a fluorogenic peptide substrate, Suc-Leu-Leu-Val-Tyr-AMC, for 30 min at 37° C. in 100 μl of assay buffer (20 mM Tris-HCl, pH 8.0) with various concentrations of tannic acid. After incubation, the reaction mixture is diluted to 200 μl with the assay buffer, followed by measurement of the hydrolyzed 7-amido-4-methyl-coumarin (AMC) groups using a fluorometer with an excitation filter of 380 nm and an emission filter of 460 nm. B). […] Tannic acid (0.3 μg/ml) and Glucose (180 μg/ml) are used in the proteasome activity assay as described above. C). […] Purified calpain I (3 μg) protein is incubated with 40 μM of a fluorogenic peptide substrate, Suc-Leu-Tyr-AMC, for 30 min at 37° C. in 100 μl of assay buffer (50 mM Tris-HCl, pH 7.5, containing 50 mM NaCl, 1 mM EDTA, 1 mM EGTA, 5 mM β-Mercaptoethanol, 5 mM CaCl2, and 0.1% CHAPS) in the absence (control) or presence of 5 μg/ml of tannic acid or 0.18 μg/ml of calpeptin (calpain inhibitor).
Inhibition of the proteasome activity in vitro by tea polyphenols—To measure the 20S proteasome chymotrypsin-like activity, 0.5 μg of a purified 20S proteasome (Calbiochem) is incubated with 20 μM of a fluorogenic peptide substrate, Suc-Leu-Leu-Val-Tyr-AMC (Calbiochem), for 30 min at 37° C. in 100 μl of assay buffer (20 mM Tris-HCl, pH 8.0), with or without tea polyphenols (purity >95%; Sigma) or tea extract. After incubation, the reaction mixture is diluted to 200 μl with the assay buffer, followed by measurement of the hydrolyzed 7-amido-4-methyl-coumarin (AMC) groups using a VersaFluor™ Fluorometer with an excitation filter of 380 nm and an emission filter of 460 nm (Bio-Rad).

Row | SMILES | increase in G1 population ([1]; 12 h) [%] | increase in G1 population ([1]; 36 h) [%] | IC50 [2] [mM]
1 | O=C(O[C@@H]1Cc2c(O)cc(O)cc2O[C@@H]1c1cc(O)c(O)c(O)c1)c1cc(O)c(O)c(O)c1 [EGCG, (−)-epigallocatechin-3-gallate] | 21 | 33 | –
2 | Oc1cc(O)c2c(c1)O[C@H](c1cc(O)c(O)c(O)c1)[C@H](O)C2 [EGC, (−)-epigallocatechin] | – | – | 1.2
